Measurements taken from patent US20210040428A1, “MICROFLUIDIC DEVICE AND METHOD FOR DETERMINING CELL ELECTRICAL BARRIER PROPERTIES” (University of Southampton, priority 2018, published 2021).

System: differentiated culture of primary bronchial human cells
Assay: Barrier disruption at the air-liquid interface: epithelial barrier resistance Rc by impedance spectroscopy before and after EGTA stimulation
Assay type: cell-based
Details: paired t-test
Description: Impedance spectra were measured before and after EGTA stimulation either submerged or at the air-liquid interface. The extrapolated values of the equivalent resistance Rc were compared with TER values.
FIG. 17 is a bar chart of fitted resistance values, Rc, showing the disruption induced by the EGTA stimulation.
Electrical impedance spectroscopy (EIS) measurements were performed using the two electrodes configuration of an Alpha-A impedance analyser (Novocontrol Technologies, Germany). A frequency sweep was performed between 100 Hz and 100 kHz, with an applied voltage of 0.05 V(rms). Prior to the EIS measurement, the medium in the apical compartment was replaced with different volumes (200 μl, 50 μl, 20 μl, 10 μl) of fresh medium at room-temperature. Each Transwell® support was placed on top of the planar electrodes only for the duration of the measurement (≈30 s). Trans-epithelial electrical resistance (TER) measurements were performed using chopstick electrodes connected to an EVOM2 Epithelial Volt-ohm-meter (World Precision Instruments).
A custom script was developed in Matlab (© 2015 The MathWorks) to fit the complex electrical impedance data with the equivalent electric circuit model. The objective function to be minimized during the fitting was defined as: […]
The absolute value of the impedance was used as the normalizing factor. […]

O=C(O)CN(CCOCCOCCN(CC(=O)O)CC(=O)O)CC(=O)O [EGTA, ethylene glycol-bis(β-aminoethyl ether)-N,N,N′,N′-tetraacetic acid]
fitted resistance Rc of the epithelial barrier, change after stimulation compared to the control (air-liquid interface measurement): statistically significant (paired t-test) drop
fitted resistance Rc of the epithelial barrier, change after stimulation compared to the control (submerged measurement): statistically significant (paired t-test) drop
